Measurements as given in patent US20030186434A1, “Method of forming vertebrate pancreas in vitro” (priority 2002, published 2003).

System: blastopore upper lip of early gastrula of a Xenopus
Assay: Tissue differentiation of blastopore upper lip cultured continuously in retinoic acid solution for 10 days
Assay type: cell-based
Conditions: for Neural tissue differentiated, specimens (%) / Notochord differentiated, specimens (%) / Pancreas differentiated, specimens (%) / Pharyngeal epithelium differentiated, specimens (%) / Pronephros differentiated, specimens (%) / Yolk-rich cell differentiated, specimens (%) / Atypical epidermis differentiated, specimens (%) / Cartilage differentiated, specimens (%) / Cement gland differentiated, specimens (%) / Coelomic epithelium differentiated, specimens (%) / Ear vesicle differentiated, specimens (%) / Epidermis differentiated, specimens (%) / Eye or its fragments differentiated, specimens (%) / Gastric gland differentiated, specimens (%) / Hemocyte differentiated, specimens (%) / Intestinal epithelium differentiated, specimens (%) / Mesenchyme differentiated, specimens (%) / Muscle differentiated, specimens (%): continuous 10 days

## CC1=C(/C=C/C(C)=C/C=C/C(C)=C/C(=O)O)C(C)(C)CCC1 [Retinoic acid, retinoic acid]
10^−5 M, 17 specimens
  Neural tissue differentiated, specimens (%): 0 (0)
  Notochord differentiated, specimens (%): 14 (82)
  Pancreas differentiated, specimens (%): 2 (12)
  Pharyngeal epithelium differentiated, specimens (%): 5 (29)
  Pronephros differentiated, specimens (%): 0 (0)
  Yolk-rich cell differentiated, specimens (%): 15 (88)
10^−6 M, 16 specimens
  Atypical epidermis differentiated, specimens (%): 0 (0)
  Cartilage differentiated, specimens (%): 0 (0)
  Cement gland differentiated, specimens (%): 0 (0)
  Coelomic epithelium differentiated, specimens (%): 2 (13)
  Ear vesicle differentiated, specimens (%): 0 (0)
  Epidermis differentiated, specimens (%): 1 (6)
  Eye or its fragments differentiated, specimens (%): 0 (0)
  Gastric gland differentiated, specimens (%): 2 (13)
  Hemocyte differentiated, specimens (%): 0 (0)
  Intestinal epithelium differentiated, specimens (%): 14 (88)
  Mesenchyme differentiated, specimens (%): 13 (81)
  Muscle differentiated, specimens (%): 3 (19)
  Neural tissue differentiated, specimens (%): 0 (0)
  Notochord differentiated, specimens (%): 14 (88)
  Pancreas differentiated, specimens (%): 1 (6)
  Pharyngeal epithelium differentiated, specimens (%): 3 (19)
  Pronephros differentiated, specimens (%): 0 (0)
  Yolk-rich cell differentiated, specimens (%): 14 (88)
10^−7 M, 15 specimens
  Atypical epidermis differentiated, specimens (%): 0 (0)
  Cartilage differentiated, specimens (%): 0 (0)
  Cement gland differentiated, specimens (%): 0 (0)
  Coelomic epithelium differentiated, specimens (%): 9 (60)
  Ear vesicle differentiated, specimens (%): 0 (0)
  Epidermis differentiated, specimens (%): 8 (53)
  Eye or its fragments differentiated, specimens (%): 0 (0)
  Gastric gland differentiated, specimens (%): 3 (20)
  Hemocyte differentiated, specimens (%): 0 (0)
  Intestinal epithelium differentiated, specimens (%): 5 (33)
  Mesenchyme differentiated, specimens (%): 9 (60)
  Muscle differentiated, specimens (%): 4 (27)
  Neural tissue differentiated, specimens (%): 2 (13)
  Notochord differentiated, specimens (%): 14 (93)
  Pancreas differentiated, specimens (%): 1 (7)
  Pharyngeal epithelium differentiated, specimens (%): 9 (60)
  Pronephros differentiated, specimens (%): 1 (7)
  Yolk-rich cell differentiated, specimens (%): 13 (87)
10^−8 M, 20 specimens
  Atypical epidermis differentiated, specimens (%): 0 (0)
  Cartilage differentiated, specimens (%): 9 (45)
  Cement gland differentiated, specimens (%): 0 (0)
  Coelomic epithelium differentiated, specimens (%): 6 (30)
  Ear vesicle differentiated, specimens (%): 0 (0)
  Epidermis differentiated, specimens (%): 19 (95)
  Eye or its fragments differentiated, specimens (%): 0 (0)
  Gastric gland differentiated, specimens (%): 0 (0)
  Hemocyte differentiated, specimens (%): 0 (0)
  Intestinal epithelium differentiated, specimens (%): 2 (10)
  Mesenchyme differentiated, specimens (%): 19 (95)
  Muscle differentiated, specimens (%): 12 (60)
  Neural tissue differentiated, specimens (%): 7 (35)
  Notochord differentiated, specimens (%): 17 (85)
  Pancreas differentiated, specimens (%): 1 (5)
  Pharyngeal epithelium differentiated, specimens (%): 12 (60)
  Pronephros differentiated, specimens (%): 0 (0)
  Yolk-rich cell differentiated, specimens (%): 9 (45)
10^−9 M, 11 specimens
  Atypical epidermis differentiated, specimens (%): 0 (0)
  Cartilage differentiated, specimens (%): 5 (45)
  Cement gland differentiated, specimens (%): 0 (0)
  Coelomic epithelium differentiated, specimens (%): 5 (45)
  Ear vesicle differentiated, specimens (%): 0 (0)
  Epidermis differentiated, specimens (%): 11 (100)
  Eye or its fragments differentiated, specimens (%): 0 (0)
  Gastric gland differentiated, specimens (%): 0 (0)
  Hemocyte differentiated, specimens (%): 0 (0)
  Intestinal epithelium differentiated, specimens (%): 0 (0)
  Mesenchyme differentiated, specimens (%): 10 (91)
  Muscle differentiated, specimens (%): 9 (82)
  Neural tissue differentiated, specimens (%): 9 (82)
  Notochord differentiated, specimens (%): 11 (100)
  Pancreas differentiated, specimens (%): 0 (0)
  Pharyngeal epithelium differentiated, specimens (%): 7 (64)
  Pronephros differentiated, specimens (%): 0 (0)
  Yolk-rich cell differentiated, specimens (%): 8 (73)
Continuous treatment 10 days, any concentration tested
  formation rate of pancreas: about 10%
